Laboratory results taken from ChEMBL document CHEMBL5038613, “Synthesis, functional proteomics and biological evaluation of new 5-pyrazolyl ureas as potential anti-angiogenic compounds” (Eur J Med Chem, 2021).
The source made the active and inactive calls. The calls are words filed in the database; no cut-off is given here.

Assays:
NCI-H522 = assay: Antiproliferative activity against human NCI-H522 cells assessed as inhibition of cell growth at 10 uM; format: functional; design: scale not given: the % may be the effect or the level left
CCRF-CEM = assay: Antiproliferative activity against human CCRF-CEM cells assessed as inhibition of cell growth at 10 uM; format: functional; design: scale not given: the % may be the effect or the level left
HUVEC [1] = assay: Anti-angiogenic activity against HUVEC cells assessed as decrease in ERK phosphorylation level at 20 uM preincubated for 10 mins followed by VEGF addition and measured after 20 mins in presence of Na3VO4 by western blot analysis; format: functional, cell-based; settings: Homo sapiens, time 30.0 min
HUVEC [2] = assay: (§1) Antiproliferative activity against HUVEC assessed as inhibition of cell growth at 10 uM measured after 24 hrs by EdU incorporation based fluorescence microscopic analysis; format: toxicity; settings: human, huvec, 24 h, 10 µM
HUVEC [3] = assay: Anti-angiogenic activity against HUVEC cells assessed as decrease in ERK phosphorylation level at 20 uM preincubated for 10 mins followed by VEGF addition and measured after 20 mins by western blot analysis; format: functional, cell-based; settings: Homo sapiens, time 30.0 min
HUVEC [4] = assay: Antiproliferative activity against HUVEC assessed as inhibition of cell growth at 100 uM measured after 24 hrs by EdU incorporation based fluorescence microscopic analysis; format: toxicity; settings: human
HUVEC [5] = assay: (§2) Antiproliferative activity against HUVEC assessed as inhibition of cell growth at 20 uM measured after 24 hrs by EdU incorporation based fluorescence microscopic analysis; format: toxicity; settings: human, huvec, 24 h, 20 µM
HUVEC [6] = assay: Anti-angiogenic activity against HUVEC cells assessed as effect on SRC phosphorylation at 20 uM preincubated for 10 mins followed by VEGF addition and measured after 20 mins by western blot analysis; format: functional, cell-based; settings: Homo sapiens, time 30.0 min
HL-60(TB) = assay: Antiproliferative activity against human HL-60(TB) cells assessed as inhibition of cell growth at 10 uM; format: functional; design: scale not given: the % may be the effect or the level left
SK-MEL-2 = assay: Antiproliferative activity against human SK-MEL-2 cells assessed as inhibition of cell growth at 10 uM; format: functional; design: scale not given: the % may be the effect or the level left
HCT-116 = assay: Antiproliferative activity against human HCT-116 cells assessed as inhibition of cell growth at 10 uM; format: functional; design: scale not given: the % may be the effect or the level left
RPMI-8226 = assay: Antiproliferative activity against human RPMI-8226 cells assessed as inhibition of cell growth at 10 uM; format: functional; design: scale not given: the % may be the effect or the level left
SK-MEL-5 = assay: Antiproliferative activity against human SK-MEL-5 cells assessed as inhibition of cell growth at 10 uM; format: functional; design: scale not given: the % may be the effect or the level left
K562 = assay: Antiproliferative activity against human K-562 cells assessed as inhibition of cell growth at 10 uM; format: functional; design: scale not given: the % may be the effect or the level left
HUVEC [7] = assay: Effect on PP1gamma expression level in HUVEC cells at 1 uM by western blot analysis; format: functional, cell-based; settings: Homo sapiens
[8] = as §1; format: toxicity; settings: human, HUVEC cells, read-out: Activity
HUVEC [9] = assay: Effect on MAPK1 expression level in HUVEC cells at 100 uM by western blot analysis; format: functional, cell-based; settings: Homo sapiens
M14 = assay: Antiproliferative activity against human M14 cells assessed as inhibition of cell growth at 10 uM; format: functional; design: scale not given: the % may be the effect or the level left
[10] = as §2; format: toxicity; settings: human, HUVEC cells, read-out: Activity

For `CCOC(=O)c1cnn(CC(O)CC)c1NC(=O)NCc1cccc(F)c1` (configuration not stated), the Activity (NCI-H522) was 40%.

`CCCC(O)Cn1ncc(C(=O)OCC)c1NC(=O)NCc1ccccc1C(F)(F)F` (configuration not stated) showed an Activity (NCI-H522) of 59%.

Work on `CCCC(O)Cn1ncc(C(=O)OCC)c1NC(=O)NCc1ccc(F)cc1` (configuration not stated) yielded an Activity (NCI-H522) of 53%.

Compound `CCOC(=O)c1cnn(CC(C)O)c1NC(=O)NCc1cccc(F)c1` (configuration not stated) has an Activity (CCRF-CEM) of 100%.

With `CCOC(=O)c1cnn(CC(O)CC)c1NC(=O)NCc1ccc(C(F)(F)F)cc1` (configuration not stated) the Activity (NCI-H522) was 40%.

Compound `CCCC(O)Cn1ncc(C(=O)OCC)c1NC(=O)NCc1ccccc1F` (configuration not stated) has an Activity (NCI-H522) of 44%.

With `CCCC(O)Cn1ncc(C(=O)OCC)c1NC(=O)Nc1cccc(C(F)(F)F)c1` (configuration not stated) the Activity (HUVEC [1]) was “inactive”, the Activity (HUVEC [2]) was “Non-Toxic” and the Activity (HUVEC [3]) was “inactive”. For the same compound, the Activity (HUVEC [4]) was “Toxic”, the Activity (HUVEC [5]) was “Non-Toxic” and the Activity (HUVEC [6]) was “inactive”.

With `CCOC(=O)c1cnn(CC(C)O)c1NC(=O)NCc1ccccc1C(F)(F)F` (configuration not stated) the Activity (HL-60(TB)) was 42%.

`CCCC(O)Cn1ncc(C(=O)OCC)c1NC(=O)NCc1ccc(C(F)(F)F)cc1` (configuration not stated) showed an Activity (SK-MEL-2) of 49%, an Activity (HCT-116) of 59% and an Activity (CCRF-CEM) of 60%. For the same compound, the Activity (HL-60(TB)) was 60%, the Activity (RPMI-8226) was 74% and the Activity (SK-MEL-5) was 59%. The Activity (K562) was 65% and the Activity (NCI-H522) was 50%.

Work on `CCOC(=O)c1cnn(CC(C)O)c1NC(=O)NCc1ccccc1F` (configuration not stated) yielded an Activity (HL-60(TB)) of 44%.

With `CCCC(O)Cn1ncc(C(=O)OCC)c1NC(=O)NCc1cccc(C(F)(F)F)c1` (configuration not stated) the Activity (HUVEC [1]) was “inactive”, the Activity (HUVEC [7]) was “Active” and the inhibition at 24 h, 10 µM [8] was 20%. The Activity (CCRF-CEM) was 100%, the Activity (RPMI-8226) was 53% and the Activity (HUVEC [3]) was “Active”. For the same compound, the Activity (HUVEC [9]) was “Active”, the Activity (K562) was 53% and the Activity (M14) was 42%. The Activity (NCI-H522) was 54%, the Activity (HUVEC [4]) was “Toxic” and the inhibition at 24 h, 20 µM [10] was 30%. The Activity (HUVEC [6]) was “inactive”.

With `CCCC(O)Cn1ncc(C(=O)OCC)c1NC(=O)NCc1cccc(F)c1` (configuration not stated) the Activity (HUVEC [2]) was “Non-Toxic”, the Activity (HL-60(TB)) was 41% and the Activity (HUVEC [3]) was “inactive”. The Activity (NCI-H522) was 42%, the Activity (HUVEC [4]) was “Toxic” and the Activity (HUVEC [5]) was “Non-Toxic”.

`CCOC(=O)c1cnn(CC(C)O)c1NC(=O)NCc1ccc(F)cc1` (configuration not stated) gave an Activity (HL-60(TB)) of 53%.
